Results taken from patent US20060134063A1, “Agents for proliferating pancreatic beta-cells of the islets of langerhans, agents for suppressing apoptosis of said cells, and screening of candidate compounds for these agents” (priority 2000, published 2006).

Assays:
Reg gene = assay: RT-PCR of Reg gene expression in RINm5F cells; format: cell-based, rat; details: 24 h with stimulants
Method: The Reg gene expression was analyzed by RT-PCR. The cells were harvested after 24 h of culturing in a medium supplemented with stimulants, and total RNA was prepared using cesium trifluoroacetate as described in Takasawa, S. et al. (1993) J. Biol. Chem., 268, 26052-26054. RT-PCR was performed using primers corresponding to nucleotides 23 to 43 and 572 to 593 of rat Reg mRNA (Terazono, K. et al. (1988) J. Biol. Chem., 263, 2111-2114).

[1] = tested on: 5' upstream region of rat HGF gene; assay: HGF promoter/luciferase reporter assay in RINm5F cells; format: cell-based; details: -1336 to +85 construct; 10 mM nicotinamide; 24 h
Method: The 5′ upstream region (−1336 to +85) of rat HGF gene was inserted into the multicloning site of pGL3-Basic (Promega) to prepare a luciferase reporter gene construct. Rat insulinoma RINm5F cells were seeded at 1×10^5 cells/well in a 24-well plate, incubated for 2 days, then, transfected with the test luciferase reporter construct using DMRIE-C™ (Life Technologies, Inc.) as described in Akiyama, T. et al. (2001) Proc. Natl. Acad. Sci. USA 98, 48-53. […] Then, the cells were harvested in 1 ml of ice-cold phosphate-buffered saline (PBS), washed twice with PBS, and cell extracts were prepared in extraction buffer (0.1 M potassium phosphate, pH 6.8, 1 mM DTT). The protein concentration was determined using a Coomassie reagent kit (Pierce) and bovine serum albumin as a standard. Luciferase activity was determined using a chemiluminescence substrate and a Pica Gene™ Luminescence Kit (Toyo Ink Mfg. Co, Ltd., Tokyo, Japan). β-Galactosidase activity was measured using an Aurora™ GAL-XE (ICN).
Various lengths of 5′ upstream regions HGF gene (Okajima, A., Miyazawa, K. and Kitamura, N. (1993) Eur. J. Biochem. 213, 113-119 (GenBank Ac. No. D14341)) were inserted into the multicloning site of pGL3-Basic (Promega) to prepare luciferase reporter gene constructs (FIG. 10). […] The protein concentration was determined using a Coomassie reagent kit (Pierce) and bovine serum albumin as a standard. […]

90% depancreatized rats = details: PARP inhibitor-treated rats; cited from earlier work
[2] = tested on: RINm5F cell lines, #1, #6, and #24, which stably express the Reg protein receptor; assay: TUNEL apoptosis assay in RINm5F cell lines #1, #6, #24 expressing Reg protein receptor; format: cell-based, rat; details: 1,000 nM Reg protein; 20 ng/ml IL-6, 100 nM dexamethasone, 10 mM nicotinamide; 24 h
Method: Rat insulinoma RINm5F cell lines, #1, #6, and #24, which stably express Reg protein receptor (Kobayashi, S. et al. (2000) J. Biol. Chem. 275, 10723-10726) were similarly cultured as in Example 4 and 1,000 nM Reg protein and HGF at varied concentrations, 0, 2.5, and 25 ng/ml were added thereto. Twenty-four hours after the addition of Reg protein/HGF, apoptosis was measured by TUNEL method using an Apoptosis Screening kit (Wako Pure Chemical Industries Ltd., Osaka, Japan) as described in Kobayashi, S. et al. (2000) J. Biol. Chem. 275, 10723-10726.

[3] = target: T1, poly(ADP-ribose) synthetase/polymerase (PARP) (Rattus norvegicus, UniProt P27008); assay: GMSA binding reaction of RINm5F nuclear extracts, effects of ADP-ribosylation; format: biochemical; details: 1 mM β-NAD+ in the GMSA binding reaction; read-out: concentrations of half maximal inhibition (quenching of the effect of β-NAD+ on the GMSA band)
T1 construct: Nuclear extracts from RINm5F cells were prepared as described; endogenous in cells; host or cells: RINm5F (rat insulinoma) nuclear extract
Method: The nuclear extract (10 μg) was incubated in a final volume of 20 μl of buffer containing 20 mM Tris-HCl (pH 7.9), 2 mM MgCl2, 50 mM NaCl, 2 mM EDTA, 10% glycerol, 0.1% Nonidet P-40, 1 mM DTT, 50 μg/ml bovine serum albumin and 1 μg of poly(dI-dC). After incubation for 10 min at room temperature, 2.5 pmol of double-stranded DNA, previously labeled by an exchange reaction using MEGALABEL (Takara Shuzo) and [γ-^32P]ATP (Amersham Pharmacia Biotech), were added and incubated for 30 min at room temperature, then the binding reactions were resolved on pre-run 6% acrylamide gel. […] After electrophoresis, DNA/proteins were electrophoretically transferred to a PolyScreen™ PVDF membrane (NEN).
Poly(ADP-ribosyl)ation of nuclear proteins was performed in the same condition as GMSA in the presence of 62 nM [adenylate-^32P]NAD^+ (2×10^6 cpm, NEN). The ADP-ribosylated proteins were precipitated by the addition of 9 volume of acetone, separated by SDS-PAGE (12.5%) and autoradiographed.

T1 sequence (P27008 whole entry): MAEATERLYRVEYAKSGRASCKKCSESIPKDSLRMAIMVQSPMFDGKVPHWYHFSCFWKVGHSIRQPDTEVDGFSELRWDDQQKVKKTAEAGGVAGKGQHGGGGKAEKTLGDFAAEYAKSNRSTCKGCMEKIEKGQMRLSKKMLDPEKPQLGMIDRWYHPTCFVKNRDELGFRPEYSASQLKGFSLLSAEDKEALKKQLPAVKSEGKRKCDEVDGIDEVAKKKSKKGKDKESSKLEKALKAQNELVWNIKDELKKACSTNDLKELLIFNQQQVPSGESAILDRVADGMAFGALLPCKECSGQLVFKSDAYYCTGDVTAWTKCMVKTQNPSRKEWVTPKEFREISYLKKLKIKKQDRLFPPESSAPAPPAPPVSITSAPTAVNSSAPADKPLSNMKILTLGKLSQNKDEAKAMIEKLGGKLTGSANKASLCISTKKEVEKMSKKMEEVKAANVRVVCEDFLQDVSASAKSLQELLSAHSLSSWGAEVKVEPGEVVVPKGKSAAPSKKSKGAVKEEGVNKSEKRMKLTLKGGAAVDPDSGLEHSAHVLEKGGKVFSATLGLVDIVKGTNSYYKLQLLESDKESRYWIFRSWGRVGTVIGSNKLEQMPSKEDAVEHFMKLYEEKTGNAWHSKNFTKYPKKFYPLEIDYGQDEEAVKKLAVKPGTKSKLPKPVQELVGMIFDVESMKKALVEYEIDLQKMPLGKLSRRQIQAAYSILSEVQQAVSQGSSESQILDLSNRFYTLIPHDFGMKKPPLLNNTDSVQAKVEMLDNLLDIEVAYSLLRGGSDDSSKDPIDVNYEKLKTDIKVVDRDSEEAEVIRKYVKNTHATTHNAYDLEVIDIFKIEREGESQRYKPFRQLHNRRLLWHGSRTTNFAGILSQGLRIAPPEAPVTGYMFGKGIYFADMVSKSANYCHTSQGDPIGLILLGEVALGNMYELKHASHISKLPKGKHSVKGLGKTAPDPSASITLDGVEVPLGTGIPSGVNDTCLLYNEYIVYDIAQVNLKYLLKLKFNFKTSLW

For `NC(=O)c1cccnc1` [nicotinamide], the “Reg gene expression (Reg mRNA)” value (Reg gene) is given as “no effect on Reg expression”, the “transcriptional activity of HGF gene (luciferase), nicotinamide added to IL-6/dexamethasone” value [1] is given as “further enhanced this transcriptional induction” and the “development of diabetes after 90% pancreatectomy” value (90% depancreatized rats) is given as “preventing the development of diabetes”. For the same molecule, the “apoptosis induced by Reg protein (TUNEL)” value [2] was “did not” and the IC50 [3] was 250 µM.
